Experimental findings from article PMC12506092, “The MarR family transcription factor SlyA senses iron and respiratory status in enteric bacteria” (mBio, 2025) are described below.

The target of assay [1] is T1, SlyA (Salmonella enterica, UniProt P40676). In words: ITC with purified SlyA at […]°C; supported by 1H, […]-HSQC NMR. The class given is binding.
The target of assay [2] is T1, SlyA. Description: ITC with purified SlyA; supported by NMR. The class given is binding.

T1 sequence (P40676 whole entry): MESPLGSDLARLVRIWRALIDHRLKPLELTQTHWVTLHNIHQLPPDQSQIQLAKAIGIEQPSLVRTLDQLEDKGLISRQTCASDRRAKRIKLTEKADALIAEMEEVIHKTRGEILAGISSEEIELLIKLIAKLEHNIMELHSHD

For the molecule `O=C(O)c1cccc(O)c1O` [2,3-dihydroxybenzoate], at SlyA [1], the equilibrium dissociation constant (Kd) was approximately 57 µM.
On the same count and under the same terms, in the case of `O=C(O)c1ccc(O)cc1` [4-hydroxybenzoate] it was approximately 100 µM.
Turning to `O=C(O)c1ccccc1O` [salicylate], the Kd at SlyA [2] came to 36 µM.
